Reference: patent publication US8785468B2, “Phenylalanine amide derivatives useful for treating insulin-related diseases and conditions” (Amgen Inc., priority 2009, dated 2014)
Counter-ions that a name gives are not always drawn.

Target: T1, human receptor found in pancreatic islet cells (Homo sapiens, UniProt Q7Z601)
T1 sequence (Q7Z601 1-462): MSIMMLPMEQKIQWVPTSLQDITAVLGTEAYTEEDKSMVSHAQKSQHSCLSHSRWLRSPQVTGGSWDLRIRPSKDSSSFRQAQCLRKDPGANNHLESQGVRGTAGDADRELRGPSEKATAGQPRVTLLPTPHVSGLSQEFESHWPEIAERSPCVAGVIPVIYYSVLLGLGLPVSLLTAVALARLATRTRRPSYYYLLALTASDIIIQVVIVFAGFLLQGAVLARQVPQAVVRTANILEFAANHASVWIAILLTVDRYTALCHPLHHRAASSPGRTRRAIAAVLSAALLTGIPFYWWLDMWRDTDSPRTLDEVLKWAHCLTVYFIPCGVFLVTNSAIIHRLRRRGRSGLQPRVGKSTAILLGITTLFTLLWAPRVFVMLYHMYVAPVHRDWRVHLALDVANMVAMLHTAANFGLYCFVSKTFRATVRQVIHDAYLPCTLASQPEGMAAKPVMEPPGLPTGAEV
Test: Activation of intracellular IP3 signaling in transfected cells (Activation Assay)
Type: cell-based
Conditions: calculated from IP3 concentration measurements in cells transfected with the human receptor
Protocol: Table 12 provides exemplary compounds that were prepared and assessed, following protocols known to those of skilled in the art, for activation of intracellular inositol trisphosphate (IP3) signaling pathways that lead to elevation of intracellular calcium concentration. EC50 values provided in Table 12 were calculated from IP3 concentration measurements in cells transfected with a human receptor found in pancreatic islet cells, inter alia.

Structure (SMILES) | EC50 [nM]
COc1ncc(-c2ccnc(C)c2)cc1NC(=O)[C@H](Cc1ccccc1)NCc1cscn1 [Example 41.5, (2S)—N-(2-Methoxy-5-(2-methylpyridin-4-yl)pyridin-3-yl)-3-phenyl-2-(thiazol-4-ylmethylamino)propanamide TFA salt] | 100 to 1000
COc1ncc(-c2ccnc(C)c2)cc1NC(=O)[C@H](Cc1ccccc1)NC1(c2ccccn2)CC1 [Example 41.1, (2S)—N-(2-Methoxy-5-(2-methylpyridin-4-yl)pyridin-3-yl)-3-phenyl-2-(1-(pyridin-2-yl)cyclopropylamino)propanamide] | 100 to 1000
CNc1cc(-c2cc(NC(=O)[C@H](Cc3ccc(F)cc3)NCc3cscn3)n(C(C)C)n2)ccn1 [Example 43.2] | 50 to 100
Cc1cc(-c2cc(NC(=O)[C@@H](N)Cc3ccc(F)cc3)n(C)n2)ccn1 [Example 16.1.F, (2S)-2-amino-3-(4-fluorophenyl)-N-(1-methyl-3-(2-methylpyridin-4-yl)-1H-pyrazol-5-yl)propanamide] | 100 to 1000
COc1ncc(-c2ccncc2)cc1NC(=O)[C@H](Cc1ccccc1)N[C@@H](C)c1ccccn1 [Example 35.2, (S)—N-(2-Methoxy-5-(pyridin-4-yl)pyridin-3-yl)-3-phenyl-2-((S)-1-(pyridin-2-yl)ethylamino)propanamide] | 100 to 1000
Cc1cc(-c2nc(C)c(NC(=O)[C@H](Cc3ccc(F)cc3)NCc3cscn3)s2)ccn1 [Example 22, (2S)-3-(4-Fluorophenyl)-N-(4-methyl-2-(2-methylpyridin-4-yl)thiazol-5-yl)-2-(thiazol-4-ylmethylamino)propanamide] | 50 to 100
COc1ncc(-c2cc[nH]n2)cc1NC(=O)[C@H](Cc1ccccc1)NCc1cscn1 [Example 14.3, (2S)—N-(2-methoxy-5-(1H-pyrazol-3-yl)pyridin-3-yl)-3-phenyl-2-(thiazol-4-ylmethylamino)propanamide] | 50 to 100
O=C(Nc1cc(-c2ccncc2)c[nH]c1=O)[C@H](Cc1cccc(Cl)c1)NCc1cscn1 [Example 25.1, (S)-3-(3-Chlorophenyl)-N-(2-oxo-5-(pyridin-4-yl)-1,2-dihydropyridin-3-yl)-2-(thiazol-4-ylmethylamino)propanamide trifluoroacetate] | 100 to 1000
O=C([C@H](Cc1ccccc1)NCc1ccccn1)N1CCc2ccc(-c3ccncc3)cc21 [Example 50, (S)-3-Phenyl-2-(pyridin-2-ylmethylamino)-1-(6-(pyridin-4-yl)indolin-1-yl)propan-1-one TFA Salt] | 100 to 1000
O=C([C@H](Cc1ccccc1)NCc1cscn1)N1CCc2c(-c3n[nH]c(=O)o3)cc(-c3ccncc3)cc21 [Example 57, (S)-5-(1-(3-Phenyl-2-(thiazol-4-ylmethylamino)propanoyl)-6-(pyridin-4-yl)indolin-4-yl)-1,3,4-oxadiazol-2(3H)-oneTFA salt] | 50 to 100
O=C([C@H](Cc1ccccc1)NCc1cscn1)N1CCc2c(-c3n[nH]c(=S)o3)cc(-c3ccncc3)cc21 [Example 58, (S)-3-Phenyl-1-(6-(pyridin-4-yl)-4-(5-thioxo-4,5-dihydro-1,3,4-oxadiazol-2-yl)indolin-1-yl)-2-(thiazol-4-ylmethylamino)propan-1-one] | < 50
CNc1cc(-c2cc(NC(=O)[C@H](Cc3ccc(F)cc3)NCc3cscn3)[nH]n2)ccn1 [Example 18.1, (2S)-3-(4-Fluorophenyl)-N-(3-(2-(methylamino)pyridin-4-yl)-1H-pyrazol-5-yl)-2-(thiazol-4-ylmethylamino)propanamide] | < 50
COc1ncc(-c2cn[nH]c2)cc1NC(=O)[C@H](Cc1ccccc1)NCc1ccccn1 [Example 15.2, (2S)—N-(2-methoxy-5-(1H-pyrazol-4-yl)pyridin-3-yl)-3-phenyl-2-(pyridin-2-ylmethylamino)propanamide] | 100 to 1000
CNc1cc(-c2cc(NC(=O)[C@H](Cc3ccc(F)cc3)NCc3ccc(F)cn3)n(C)n2)ccn1 [Example 23.6, (2S)-3-(4-Fluorophenyl)-2-((5-fluoropyridin-2-yl)methylamino)-N-(1-methyl-3-(2-(methylamino)pyridin-4-yl)-1H-pyrazol-5-yl)propanamide] | < 50
COc1ncc(-c2ccnc(C)c2)cc1NC(=O)[C@H](Cc1ccccc1)N[C@@H](C)c1ccccn1 [Example 41.2, (S)—N-(2-Methoxy-5-(2-methylpyridin-4-yl)pyridin-3-yl)-3-phenyl-2-((S)-1-(pyridin-2-yl)ethylamino)propanamide] | 100 to 1000
O=C(Nc1cnc(-c2ccncc2)s1)[C@H](Cc1ccc(F)cc1)NCc1cscn1 [Example 5.2, (S)-3-(4-Fluorophenyl)-N-(2-(pyridin-4-yl)thiazol-5-yl)-2-(thiazol-4-ylmethylamino)propanamide] | 50 to 100
CNc1cc(-c2nnc(NC(=O)[C@H](Cc3ccc(F)cc3)NCc3cscn3)s2)ccn1 [Example 8.2, (2S)-3-(4-fluorophenyl)-N-(5-(2-(methylamine)pyridine-4-yl)-1,3,4-thiadiazol-2-yl)-2-(thiazol-4-ylmethylamino)propanamide] | 50 to 100
O=C([C@H](Cc1ccccc1)NCc1cscn1)N1CCc2ccc(-c3ccc(F)cc3)cc21 [Example 85, (S)-1-[6-(4-Fluoro-phenyl)-2,3-dihydro-indol-1-yl]-3-phenyl-2-[(thiazol-4-ylmethyl)-amino]-propan-1-one Trifluoroacetate] | 100 to 1000

Now from value to compound:

EC50 [nM] | Structure (SMILES)
1000 to 10000 | O=C(Nc1cccc(-c2ccncc2F)c1)[C@H](Cc1ccccc1)NCc1cscn1 [Example 34.21, (2S)—N-(3-(3-Fluoropyridin-4-yl)phenyl)-3-phenyl-2-(thiazol-4-ylmethylamino)propanamide TFA salt]
50 to 100 | CC(C)n1nc(-c2ccncc2)cc1NC(=O)[C@H](Cc1ccc(Cl)cc1)NCC(=O)O [Example 29, (S)-2-(3-(4-Chlorophenyl)-1-(1-isopropyl-3-(pyridin-4-yl)-1H-pyrazol-5-ylamino)-1-oxopropan-2-ylamino)acetic acid]
1000 to 10000 | O=C(Nc1cccc(-c2ccncc2)c1)[C@@H](Cc1ccccc1)NCc1cscn1 [Example 34.5, (R)-3-Phenyl-N-(3-(pyridin-4-yl)phenyl)-2-(thiazol-4-ylmethylamino)propanamide trifluoroacetate]
< 50 | O=C(O)CN[C@@H](Cc1ccccc1)C(=O)Nc1cc(-c2ccncc2)nn1CC(F)(F)F [Example 24, (S)-2-(1-Oxo-3-phenyl-1-(3-(pyridin-4-yl)-1-(2,2,2-trifluoroethyl)-1H-pyrazol-5-ylamino)propan-2-ylamino)acetic acid]
1000 to 10000 | O=C(Nc1cccc(-c2ccncc2)c1)[C@@H](Cc1ccccc1)NCc1nccs1 [Example 34.7, (R)-3-Phenyl-N-(3-(pyridin-4-yl)phenyl)-2-(thiazol-2-ylmethylamino)propanamide trifluoroacetate]
100 to 1000 | O=C(Nc1cccc(-c2ccncc2)c1)[C@H](Cc1ccccc1)NCCC1CCOCC1 [Example 34.1, (S)-3-Phenyl-N-(3-(pyridin-4-yl)phenyl)-2-(2-(tetrahydro-2H-pyran-4-yl)ethylamino)propanamide]
100 to 1000 | CC(N[C@@H](Cc1ccccc1)C(=O)Nc1cccc(-c2ccncc2)c1)c1cscn1 (stereo partly drawn) [Example 34.19, (2S)-3-Phenyl-N-(3-(pyridin-4-yl)phenyl)-2-(1-(thiazol-4-yl)ethylamino)propanamide]
100 to 1000 | Cc1cc(-c2cc(NC(=O)[C@H](Cc3ccccc3)NCc3cscn3)cc(C(=O)O)c2)ccn1 [Example 49.2, 3-(2-Methylpyridin-4-yl)-5-((S)-3-phenyl-2-(thiazol-4-ylmethylamino)propanamido)benzoic acid TFA salt]
1000 to 10000 | O=C(Nc1cccc(-c2ccncc2)c1)[C@H](Cc1ccccc1)NCC1CCOC1 (stereo partly drawn) [Example 34.11, (2S)-3-Phenyl-N-(3-(pyridin-4-yl)phenyl)-2-((tetrahydrofuran-3-yl)methylamino)propanamide TFA salt]
50 to 100 | CCC(N[C@@H](Cc1ccccc1)C(=O)Nc1cccc(-c2ccncc2)c1)c1ccccn1 (stereo partly drawn) [Example 34.3, (2S)-3-Phenyl-2-(1-(pyridin-2-yl)propylamino)-N-(3-(pyridin-4-yl)phenyl)propanamide]
50 to 100 | O=C(Nc1nnc(-c2ccncc2)s1)[C@H](Cc1cccc(F)c1)NCc1cscn1 [Example 1.6, (S)-3-(3-fluorophenyl)-N-(5-(pyridin-4-yl)-1,3,4-thiadiazol-2-yl)-2-(thiazol-4-ylmethylamino)propanamide]
1000 to 10000 | CCn1nc(-c2ccncc2)cc1NC(=O)[C@H](Cc1ccccc1)N[C@H](C)C(=O)O [Example 20.3, (R)-2-((S)-1-(1-Ethyl-3-(pyridin-4-yl)-1H-pyrazol-5-ylamino)-1-oxo-3-phenylpropan-2-ylamino)propanoic acid]
100 to 1000 | O=C(O)Cn1nc(-c2ccncc2)cc1NC(=O)[C@H](Cc1ccccc1)NCc1cscn1 [Example 26, (S)-2-(5-(3-Phenyl-2-(thiazol-4-ylmethylamino)propanamido)-3-(pyridin-4-yl)-1H-pyrazol-1-yl)acetic acid]
100 to 1000 | CC(N[C@@H](Cc1ccccc1)C(=O)Nc1cccc(-c2ccncc2)c1)c1cnccn1 (stereo partly drawn) [Example 34.10, (2S)-3-Phenyl-2-(1-(pyrazin-2-yl)ethylamino)-N-(3-(pyridin-4-yl)phenyl)propanamide]
